Measured values from patent publication US4112228A, “7-(D-α-Hydroxy-2-arylacetamido)-3-(2-carboxyalkyl-2,3-dihydro-s-tri azolo-[4,3-b]pyridazin-3-on-6-ylthiomethyl)-3-cephem-4-carboxylic acids and derivatives” (priority 1977, dated 1978).
In brackets after ≈: the same amount, converted by molar mass. Read-outs that look alike come from different tables or passages of the source.

How the values were obtained:
[1] = system: E. coli; experiment: MIC by Steers' agar dilution method; assay type: cell-based; conditions: Escherichia coli, MHA, read-out: MIC
[2] = system: Pr. vulgaris; experiment: MIC by Steers' agar dilution method; conditions: Proteus vulgaris
[3] = system: Shig. flexneri; experiment: MIC by Steers' agar dilution method; assay type: cell-based; conditions: Shigella flexneri, MHA
[4] = Urinary recovery in rats; assay type: in vivo; conditions: rat, urine, sc 10 mg./kg., 0-24 Hrs.
[5] = system: P. mirabilis A9900 (Pm-2); experiment: Standard experimental infection (single sc treatment); conditions: for No. of survivors/No. tested: Run C-810, 1×10^3 LD50, single sc
[6] = system: Enterob. cloacae; experiment: MIC by Steers' agar dilution method
[7] = system: S. paratyphi; experiment: MIC by Steers' agar dilution method; conditions: Salmonella enterica
[8] = system: K. pneumoniae A9977; experiment: Standard experimental infection in mice; assay type: in vivo; conditions: for ED50: Klebsiella pneumoniae, A9977, read-out: PD50
[9] = system: Sal. typhosa; experiment: MIC by Steers' agar dilution method; assay type: cell-based; conditions: St-1; MHA; Table 3
[10] = system: bacteria of Table 4; experiment: Media effect on MIC (Nutrient, Mueller-Hinton, Heart-Infusion agar); assay type: cell-based; conditions: NA, MHA, HIA
[11] = system: P. inconstans; experiment: MIC by Steers' agar dilution method; conditions: Providencia alcalifaciens

Cn1nnnc1SCC1=C(C(=O)O)N2C(=O)[C@@H](NC(=O)[C@H](O)c3ccccc3)[C@H]2SC1 [Cefamandole, cefamandole, reference compound]
MIC ([1]; Juhl, Example 10): 0.8 µg/mL (≈ 1.73 µM)
MIC ([1]; NIHJ, Example 10): 0.05 µg/mL (≈ 0.108 µM)
MIC ([1]; NIHJ, Table 1): 0.025 µg/mL (≈ 0.0541 µM)
MIC ([1]; strain not named (1st of 3), Example 10): 0.1 µg/mL (≈ 0.216 µM)
MIC ([1]; strain not named (2nd of 3), Example 10): 0.1 µg/mL (≈ 0.216 µM)
MIC ([1]; strain not named (3rd of 3), Example 10): 1.6 µg/mL (≈ 3.46 µM)
MIC ([2]; A9436, MHA, Table 1): 0.4 µg/mL (≈ 0.865 µM)
MIC ([2]; A9699, MHA, Table 1): 6.3 µg/mL (≈ 13.6 µM)
MIC ([2]; ATCC9920, Pv-4 ATCC 9920, MHA, Table 3): 0.2 µg/mL (≈ 0.432 µM)
MIC ([2]; Pv-1 A9436, HIA, Table 4): 0.4 µg/mL (≈ 0.865 µM)
MIC ([2]; Pv-1 A9436, MHA, Table 3): 0.8 µg/mL (≈ 1.73 µM)
MIC ([2]; Pv-1 A9436, MHA, Table 4): 0.4 µg/mL (≈ 0.865 µM)
MIC ([2]; Pv-1 A9436, NA, Table 4): 0.2 µg/mL (≈ 0.432 µM)
MIC ([2]; Pv-2 A9526, MHA, Table 3): 1.6 µg/mL (≈ 3.46 µM)
MIC ([2]; Pv-3 A9699 (β-lactamase), HIA, Table 4): 100 µg/mL (≈ 216 µM)
MIC ([2]; Pv-3 A9699 (β-lactamase), MHA, Table 4): 50 µg/mL (≈ 108 µM)
MIC ([2]; Pv-3 A9699 (β-lactamase), NA, Table 4): 6.3 µg/mL (≈ 13.6 µM)
MIC ([2]; Pv-3 A9699, MHA, Table 3): 50 µg/mL (≈ 108 µM)
MIC ([2]; Pv-5 A9539, MHA, Table 3): > 100 µg/mL
MIC ([2]; Pv-6 A9716, MHA, Table 3): 0.8 µg/mL (≈ 1.73 µM)
MIC ([2]; Pv-7 A21240, MHA, Table 3): > 100 µg/mL
MIC ([2]; strain not given (1st of 2), MHA, Example 10): 0.2 µg/mL (≈ 0.432 µM)
MIC ([2]; strain not named (2nd of 2), MHA, Example 10): 50 µg/mL (≈ 108 µM)
MIC ([3]; A9684, Table 1): 6.3 µg/mL (≈ 13.6 µM)
MIC ([3]; Example 10): 6.3 µg/mL (≈ 13.6 µM)
MIC ([3]; Sr-1 A9684, Table 3): 3.1 µg/mL (≈ 6.7 µM)
dose excreted at 24 h [4]: 58.3%
ED50 ([5]; Proteus mirabilis, in Mus musculus, sc, read-out: PD50): 50 mg/kg
No. of survivors/No. tested ([5]; 0.2 mg./kg.): 0/5
No. of survivors/No. tested ([5]; 0.8 mg./kg.): 0/5
No. of survivors/No. tested ([5]; 3.1 mg./kg.): 0/5
No. of survivors/No. tested ([5]; 12.5 mg./kg.): 1/5
No. of survivors/No. tested ([5]; 50 mg./kg.): 2/5
MIC ([6]; A9656, MHA, Table 1): 3.1 µg/mL (≈ 6.7 µM)
MIC ([6]; El-1 A9656, HIA, Table 4): 3.1 µg/mL (≈ 6.7 µM)
MIC ([6]; El-1 A9656, MHA, Table 3): 3.1 µg/mL (≈ 6.7 µM)
MIC ([6]; El-1 A9656, MHA, Table 4): 3.1 µg/mL (≈ 6.7 µM)
MIC ([6]; El-1 A9656, NA, Table 4): 6.3 µg/mL (≈ 13.6 µM)
MIC ([6]; El-2 A20364 (β-lactamase), HIA, Table 4): 100 µg/mL (≈ 216 µM)
MIC ([6]; El-2 A20364 (β-lactamase), MHA, Table 4): 50 µg/mL (≈ 108 µM)
MIC ([6]; El-2 A20364 (β-lactamase), NA, Table 4): 6.3 µg/mL (≈ 13.6 µM)
MIC ([6]; El-2 A20364, MHA, Table 3): 3.1 µg/mL (≈ 6.7 µM)
MIC ([6]; El-4 A20650, MHA, Table 3): 1.6 µg/mL (≈ 3.46 µM)
MIC ([6]; El-6 A9657, MHA, Table 3): 0.8 µg/mL (≈ 1.73 µM)
MIC ([6]; El-7 A9659, MHA, Table 3): 0.8 µg/mL (≈ 1.73 µM)
MIC ([6]; El-8 A9655, MHA, Table 3): 1.6 µg/mL (≈ 3.46 µM)
MIC ([6]; El-9 A20021, MHA, Table 3): 100 µg/mL (≈ 216 µM)
MIC ([6]; El-11 A20344 (β-lactamase), HIA, Table 4): > 100 µg/mL
MIC ([6]; El-11 A20344 (β-lactamase), MHA, Table 4): > 100 µg/mL
MIC ([6]; El-11 A20344 (β-lactamase), NA, Table 4): > 100 µg/mL
MIC ([6]; El-11 A20344, MHA, Table 3): > 100 µg/mL
MIC ([6]; El-12 A21006, MHA, Table 3): 3.1 µg/mL (≈ 6.7 µM)
MIC ([6]; El-14 A20953, MHA, Table 3): 3.1 µg/mL (≈ 6.7 µM)
MIC ([6]; MHA, Example 10): 3.1 µg/mL (≈ 6.7 µM)
MIC [7]: 0.2 µg/mL (≈ 0.432 µM)
No. of survivors/No. tested ([8]; 0.4 mg./kg., Table 6): 0/5
No. of survivors/No. tested ([8]; 1.6 mg./kg., Table 6): 0/5
No. of survivors/No. tested ([8]; 6.3 mg./kg., Table 6): 1/5
No. of survivors/No. tested ([8]; 25 mg./kg., Table 6): 5/5
ED50 ([8]; Run C-805, 3×10^3 LD50, single sc): 9.4 mg/kg
ED50 ([8]; Table 6): 6.25 mg/kg
No. of survivors/No. tested ([8]; Run C-805, 3×10^3 LD50, single sc, 0.4 mg./kg.): 0/5
No. of survivors/No. tested ([8]; Run C-805, 3×10^3 LD50, single sc, 1.6 mg./kg.): 0/5
No. of survivors/No. tested ([8]; Run C-805, 3×10^3 LD50, single sc, 6.3 mg./kg.): 1/5
No. of survivors/No. tested ([8]; Run C-805, 3×10^3 LD50, single sc, 25 mg./kg.): 5/5
MIC [9]: 0.2 µg/mL (≈ 0.432 µM)
Media effect on MIC [10]: little media effect
MIC [11]: 0.8 µg/mL (≈ 1.73 µM)
